The values that follow come from patent US9464098B2, “Substituted triazole boronic acid compounds” (Hoffmann-La Roche Inc., priority 2012, dated 2016).

Each structure is given as a SMILES string. Where only a bound is given, the exact number is not on record here.

Experiment [1] deals with T1, β 5i (chymotrypsin-like activity) (Homo sapiens, UniProt P20618+P28062).
T1 construct: protease activity associated with the proteasome complex in cultured cells; endogenous in cells; host or cells: Ramos cells
Nature of the experiment: Cell-Based Proteasome Activity/Selectivity Assay (Ramos cells), substrate (ANW)2Rh110. To be noted: β 5i substrate (ANW)2Rh110, highest concentration tested 20 μM, read-out: Ic50: ramos:ac-(anw)2-r110. The text has this:
(§1) Cell-Based Proteasome Activity/Selectivity Assay
(§2) The Cell-Based Proteasome subunit activity/selectivity assay was a panel of 5 fluorogenic assays that independently measured the activity of β5c or β 5i (chymotrypsin-like activity), β 2c/2i (trypsin-like), and β 1c or β 1i (caspase-like) protease activity associated with the proteasome complex in cultured cells. Specifically, the following substrates were used for respective subunit activities: β 1i: (PAL)2Rh110, β 1c: (LLE)2Rh110, β 2c/2i: (KQL)2Rh110, β 5c: (WLA)2Rh110, β 5i: (ANW)2Rh110. The following procedure was followed:
(§3) Cell preparation: Plated 25 μl of Ramos cells (2×10^6/ml in DPBS) into half area plate (PerkinElmer Cat 6005569) to final 5×10^4 cells/well. Added 0.5 μl of 100× 4-fold serial diluted test compounds or DMSO to each well. Highest concentration of compound tested was 20 μM, thus compound serial dilution started from […]. Incubated for 30 minutes at 37° C. Then equilibrated at room temperature for 15 minutes. Added 25 μl of 2× reaction mix consisting of 0.025% digitonin, 20 μM of each substrates and 0.5M sucrose in DPBS. Shaked for one minute @ 700 rpm. Incubated for 120 min at room temperature. Then read the plates with an Envision multilabel plate reader (PerkinElmer) with 500 nm excitation/519 nm emission.

Experiment [2] concerns the target T2, β5c (chymotrypsin-like activity) (Homo sapiens, UniProt P20618+P28074).
T2 construct: protease activity associated with the proteasome complex in cultured cells; endogenous in cells; host or cells: Ramos cells
Put plainly: Cell-Based Proteasome Activity/Selectivity Assay (Ramos cells), substrate (WLA)2Rh110. As to conditions: β 5c substrate (WLA)2Rh110, highest concentration tested 20 μM.
Description: as §1, §2, §3

The subject of another experiment is β 2c/2i (trypsin-like). Put plainly: Cell-Based Proteasome Activity/Selectivity Assay (Ramos cells), substrate (KQL)2Rh110. As to conditions: β 2c/2i substrate (KQL)2Rh110, highest concentration tested 20 μM.
Description: as §1, §2, §3

For a further experiment, the target named is T3, β 1i (caspase-like) (Homo sapiens, UniProt P28065+P40306).
T3 construct: protease activity associated with the proteasome complex in cultured cells; endogenous in cells; host or cells: Ramos cells
Put plainly: Cell-Based Proteasome Activity/Selectivity Assay (Ramos cells), substrate (PAL)2Rh110. To be noted: β 1i substrate (PAL)2Rh110, highest concentration tested 20 μM.
Description: as §1, §2, §3

In a further experiment the target is T4, β 1c (caspase-like) (Homo sapiens, UniProt P28072+Q99436).
T4 construct: protease activity associated with the proteasome complex in cultured cells; endogenous in cells; host or cells: Ramos cells
Nature of the experiment: Cell-Based Proteasome Activity/Selectivity Assay (Ramos cells), substrate (LLE)2Rh110. To be noted: β 1c substrate (LLE)2Rh110, highest concentration tested 20 μM.
Description: as §1, §2, §3

The test system of experiment [3] is IP10 level in PBMCs stimulated with CpG Type A. Put plainly: PBMC IP-10 Assay. The experiment is classed as cell-based. As to conditions: PBMCs stimulated with CpG Type A 2.5 μM, overnight, IP10 AlphaLISA. The protocol:
PBMCs were isolated from whole blood as follows: Blood was collected in a sterile environment in heparinized tubes. Blood was diluted with an equal volume PBS/2% FCS and 30 ml of this mixture was added to ACCUSPIN tubes containing 15 ml Histopaque-1077 already centrifuged at 800 g for 30 seconds and warmed up at room temperature. The tubes were then centrifuged at 800 g for 20 minutes at room temperature with no brake. The mononuclear band, just above the polyethylene frit, was removed by Pasteur pipet. These mononuclear cells were washed three times with sterile PBS, counted, and resuspended in RPMI 1640 supplemented with 10% heat inactivated fetal calf serum, 10 mM HEPES, 1 mM sodium pyruvate, penicillin (50 U/ml), streptomycin (50 μg/ml) and glutamine (2 mM) to approximately 1.5×10^6/ml. Approximately 2×10^5 cells/well were plated in 96 well tissue culture plates (BD Falcon 353072), and preincubated 60 mi/37° C. with a titration of compounds, in a final concentration of 1% DMSO. Cells were then stimulated with CpG Type A (Invivogen, Cat # tlrl-2216; ODN 2216) at a final concentration of 2.5 μM. Cells were incubated overnight, and supernatants were removed. PBMC viability of cells remaining in the well was measured with ATPlite luminescence assay (Perkin-Elmer) per the manufacturer's instructions. Luminescence was measured on the Perkin-Elmer Envision, using the luminescence filter. IP10 level was measured with CXCL10/IP10 AlphaLISA kit (Perkin-Elmer) per the manufacturer's instructions, except halving all volumes. Fluorescence was measured on the Envision Multilabel plate reader, using the AlphaScreen standard settings.
In general terms: Alpha assays give light when donor and acceptor beads are brought close together.

Experiment [4] has as its system Th1/17 differentiation, B cell effector functions and production of inflammatory cytokines (IL-6, TNF-α, IL-23). To be noted: cited from earlier work.
For experiment [5], the system named is mouse CAIA and CIA arthritis models. As to conditions: cited from earlier work.
Another experiment concerns MRL/lpr lupus-prone mice. To be noted: cited from earlier work.
Experiment [6] has as its system DSS-induced colitis model in mice. To be noted: cited from earlier work.

What is called IC50 is the point on the concentration scale where inhibition reaches its midpoint. What is called EC50 is the midpoint of the concentration-response curve. Higher therefore signals a need for much substance.

For the molecule `COc1ccc(C(=O)NCCn2cc(C(=O)N[C@@H](CC(C)C)B(O)O)nn2)c(OC)c1OC` [Example 1, (R)-3-Methyl-1-(1-(2-(2,3,4-trimethoxybenzamido)ethyl)-1H-1,2,3-triazole-4-carboxamido)butylboronic acid], the IC50 in experiment [1] is 2 nM; in experiment [2], 39 nM; with β 2c/2i (trypsin-like), above 20000 nM; against β 1i (caspase-like) it was 4 nM; at β 1c (caspase-like), 320 nM. For the same molecule, in [3], the response was half-maximal at 29.5 nM (EC50).

As for `COc1ccc(C(=O)NCCn2cc(C(=O)N[C@@H](Cc3ccccc3)B(O)O)nn2)c(OC)c1OC` [Example 2, (R)-2-Phenyl-1-(1-(2-(2,3,4-trimethoxybenzamido)ethyl)-1H-1,2,3-triazole-4-carboxamido)ethylboronic acid], the concentration for half-maximal inhibition (IC50) in [1] came to 7 nM; in experiment [2], 16 nM; in the experiment with β 2c/2i (trypsin-like) it was 13500 nM; against β 1i (caspase-like), 25 nM; against β 1c (caspase-like) it was 6630 nM. Further, in experiment [3], a half-maximal response (EC50) required 33.7 nM.

As for `O=C(N[C@@H](Cc1ccccc1)B(O)O)c1cn(CCNC(=O)c2ccc(C(F)(F)F)cc2F)nn1` [Example 3, (R)-1-(1-(2-(2-Fluoro-4-(trifluoromethyl)benzamido)ethyl)-1H-1,2,3-triazole-4-carboxamido)-2-phenylethylboronic acid], the IC50 was 2 nM in experiment [1]; 6 nM in [2]; above 20000 nM in the experiment on β 2c/2i (trypsin-like); 10 nM at β 1i (caspase-like); 7340 nM at β 1c (caspase-like). The molecule further showed an EC50 in experiment [3] of 26.8 nM.

Consider `COc1cc(C(F)(F)F)ccc1C(=O)NCCn1cc(C(=O)N[C@@H](Cc2ccccc2)B(O)O)nn1` [Example 4, (R)-1-(1-(2-(2-Methoxy-4-(trifluoromethyl)benzamido)ethyl)-1H-1,2,3-triazole-4-carboxamido)-2-phenylethylboronic acid], for which the IC50 in [1] is 2 nM; in [2], 20 nM; with β 2c/2i (trypsin-like) it was above 20000 nM; at β 1i (caspase-like), 9 nM; at β 1c (caspase-like), 7480 nM. Further, the EC50 in experiment [3] was 12.2 nM.

Take `COc1ccc(C[C@H](NC(=O)[C@H](C)NC(=O)CN2CCOCC2)C(=O)N[C@@H](Cc2ccccc2)C(=O)[C@@]2(C)CO2)cc1` [PR-957]: in [4], the “block of Th1/17 differentiation, B cell effector functions and production of inflammatory cytokines” value is recorded as “potently block”. In experiment [5], the disease score entry is listed as “significantly decrease disease score”. For the same molecule, in the experiment on MRL/lpr lupus-prone mice, the disease progression entry is listed as “prevented disease progression”; the “plasma cells numbers and levels of anti-dsDNA IgG” value was “reduced plasma cells numbers and levels of anti-dsDNA IgG”. Further, the “inflammation and tissue destruction” value in experiment [6] is “reduced inflammation and tissue destruction”.
